Experimental data reported in patent US12139491B2, “Diketopiperazine derivatives as calcium ATPase inhibitor for enhancing anticancer activity” (HOLOSMEDIC, priority 2018, dated 2024).

Legend:
[1] = test system: cancer stem cell-like stomach cancer cells derived from patients with relapse and metastasis after irinotecan administration, xenografted; assay: Tumor volume and weight in stomach cancer cell xenograft mouse
[2] = test system: cancer stem cell-like stomach cancer cells derived from patients with relapse and metastasis after irinotecan administration; assay: Irinotecan activity enhancement in irinotecan-resistant stomach cancer cells (cell number); type: cell-based, human; conditions: FIG. 4
Experimental: After cancer stem cell-like stomach cancer cells derived from patients with relapse and metastasis after irinotecan administration were treated with the compound of Preparation Example 1-1 only (170 nM); irinotecan only (8.9 μM); or a combination of irinotecan (4.5 μM) and the compound of Preparation Example 1-1 (75 nM), a change in cell number over treatment time was measured, and the result is shown in FIG. 4.

[3] = test system: cancer stem cell-like colorectal cancer cells derived from patients with relapse and metastasis after radiation therapy, xenografted; assay: Tumor volume and weight in colorectal cancer cell xenograft mouse; type: in vivo, BALB/c nude female mouse; conditions: oral compound (27 mg/kg) and X-rays at 5 Gy
Experimental: (§1) After cancer stem cell-like colorectal cancer cells, which were derived from patients with relapse and metastasis after radiation therapy, were cultured in vitro, the cultured cells were injected subcutaneously into the upper left flank of a BALB/c nude female mouse to be 2.0×10^7 cells/mouse. […] The mice were anesthetized to measure a change in tumor volume daily using calipers for 40 days, and the result is shown in FIG. 9. The tumor volume was calculated by the above-described Equation 1. In addition, after 40 days, a tumor weight was measured, and the result is shown in FIG. 10, and for 41 days, the body weight of the mouse was measured, and the result is shown in FIG. 11.

[4] = test system: cancer stem cell-like colorectal cancer cells derived from patients with relapse and metastasis after radiation therapy; assay: Radiation treatment activity enhancement in radiation-resistant colorectal cancer cells (cell number); type: cell-based, human; conditions: compound (75 nM) and X-rays at 5 Gy; FIG. 8
Experimental: After cancer stem cell-like colorectal cancer cells derived from patients with relapse and metastasis after radiation therapy were treated with the compound of Preparation Example 1-1 (150 nM) only; Faxitron X-rays (Faxitron Bioptics, AZ, USA) at an intensity of 5 Gy (RT); or the compound of Preparation Example 1-1 (75 nM) and the X-rays at an intensity of 5 Gy, the change in number of cancer cells over treatment time was measured, and the result is shown in FIG. 8.

[5] = test system: cancer stem cell-like thyroid cancer cells derived from patients with relapse and metastasis after paclitaxel administration, xenografted; assay: Tumor volume in thyroid cancer cell xenograft mouse; type: in vivo, BALB/c nude female mouse; conditions: 60 days, FIG. 3
Experimental: After cancer stem cell-like thyroid cancer cells derived from patients with relapse and metastasis after paclitaxel administration were cultured in vitro, the cultured cells were injected subcutaneously into the upper left flank of a BALB/c nude female mouse to be 2.0×10^7 cells/mouse. […] The mice were anesthetized to measure a change in tumor volume daily using calipers for 60 days, and the result is shown in FIG. 3. The tumor volume was evaluated using the following Equation 1. Tumor volume=L×S^2/2 [Equation 1] • (however, L is the longest diameter, and S is the shortest diameter)

[6] = Body weight of stomach cancer cell xenograft mice; conditions: 41 days, compared with negative control, stated as no toxicity problem, FIG. 7
[7] = Body weight of colorectal cancer cell xenograft mice; type: in vivo, BALB/c nude female mouse; conditions: 41 days, compared with negative control, stated as no toxicity problem, FIG. 11
Experimental: as §1

[8] = test system: cancer stem cell-like thyroid cancer cells derived from patients with relapse and metastasis after paclitaxel administration; assay: Paclitaxel activity enhancement in paclitaxel-resistant thyroid cancer cells (cell number, viability); type: cell-based, human
Experimental: After cancer stem cell-like thyroid cancer cells derived from patients with relapse and metastasis after paclitaxel administration (ATC) were treated with a compound of Preparation Example 1-1 (150 nM) only; paclitaxel (12 nM) only; or a combination of paclitaxel (5 nM) and a compound of Preparation Example 1-1 (70 nM), a change in number of cells over time was confirmed. In addition, a change in cell viability according to a treatment concentration of paclitaxel, the compound of Preparation Example 1-1, or the combination of paclitaxel and the compound of Preparation Example 1-1 is shown in FIG. 1. In addition, the change in cell viability according to the treatment concentration of paclitaxel, the compound of Preparation Example 1-1 and the combination thereof was measured, and the result is shown in FIG. 2.

[9] = test system: SKOV3-TR (paclitaxel-resistant epithelial ovarian cancer cell line); assay: Cell morphology and viability (ImageJ living cell count) in SKOV3-TR; type: cell-based; conditions: paclitaxel 5 μM; morphological analysis
Experimental: (§2) To confirm the anticancer therapeutic activity enhancing effects of the compounds of Preparation Examples, the compounds or salts prepared in Preparation Examples 1-1 to 31 (hereinafter, the compounds of Preparation Examples) were used, and cellular experiments were carried out with an epithelial ovarian cancer cell line SKOV3 and SKOV3-TR derived therefrom and produced as a resistant cell line having resistance to a paclitaxel anticancer agent. […]
(§3) For the morphological analysis of the cells, 24, 48 and 72 hours after paclitaxel treatment, images of cells treated with “None (untreated sample)”, “DMSO (paclitaxel solvent)”, “ethanol (solvent for the compounds of Preparation Examples)”, “paclitaxel”, “paclitaxel+ethanol”, and “paclitaxel+the compound of Preparation Example 1-2 (L19001)” were obtained. In addition, for the analysis of cell viability, 72 hours after treatment with paclitaxel or the compound of each Preparation Example only, or co-treatment with paclitaxel and the compound of each Preparation Example, the number of living cells was measured through Image J analysis.
(§4) The cell viability of the two types of cancer cell lines was analyzed by measuring the number of living cells using the ImageJ program.

[10] = test system: SKOV3 (epithelial ovarian cancer cell line); assay: Cell morphology and viability (ImageJ living cell count) in SKOV3; type: cell-based; conditions: paclitaxel 0.2 μM; morphological analysis
Experimental: as §2, §3, §4

Compound: CCc1c2c(nc3ccc(OC(=O)N4CCC(N5CCCCC5)CC4)cc13)-c1cc3c(c(=O)n1C2)COC(=O)[C@]3(O)CC [irinotecan, reference compound]
- change in tumor weight ([1]; oral irinotecan (75 mg/kg) only, after 40 days, compared with negative control, FIG. 6): no change
- change in number of cancer cells ([2]; irinotecan only (8.9 μM), compared with negative control): no change

Compound: CCc1oc2ccccc2c1CN1CCN2C(=O)CNC(=O)C2C1 (centres unmarked) [Preparation Example 1-1, 2-((2-ethylbenzofuran-3-yl)methyl)hexahydro-2H-pyrazino[1,2-a]pyrazine-6,9-dione]
- tumor volume ([3]; 40 days, FIG. 9): remarkably decreased
- tumor weight ([3]; after 40 days, FIG. 10): remarkably decreased
- tumor volume ([1]; oral compound (32 mg/kg) and irinotecan (55 mg/kg), 40 days, FIG. 5): remarkably decreased
- tumor weight ([1]; oral compound (32 mg/kg) and irinotecan (55 mg/kg), after 40 days, FIG. 6): remarkably decreased
- number of cancer cells [4]: remarkably decreased
- tumor volume ([5]; oral compound (27 mg/kg) then intraperitoneal paclitaxel (11 mg/kg)): remarkably decreased
- change in body weight of the mouse ([6]; oral compound (32 mg/kg) in combination with irinotecan (55 mg/kg)): no change
- change in body weight of the mouse ([6]; oral compound (70 mg/kg) alone): no change
- change in body weight of the mouse ([7]; oral compound (27 mg/kg) in combination with radiation therapy (5 Gy)): no change
- change in body weight of the mouse ([7]; oral compound (60 mg/kg) only): no change
- number of stem cell-like thyroid cancer cells ([8]; combination of paclitaxel (5 nM) and compound (70 nM), FIG. 1): remarkably decreased
- cell viability of stem cell-like thyroid cancer cells ([8]; combination of paclitaxel and compound, FIG. 2): remarkably decreased
- number of cancer cells ([2]; combination of irinotecan (4.5 μM) and compound (75 nM)): remarkably decreased

Compound: CC(=O)O[C@H]1C(=O)[C@@]2(C)[C@H]([C@H](OC(=O)c3ccccc3)[C@]3(O)C[C@H](OC(=O)[C@H](O)[C@@H](NC(=O)c4ccccc4)c4ccccc4)C(C)=C1C3(C)C)[C@]1(OC(C)=O)CO[C@@H]1C[C@@H]2O [paclitaxel, reference compound]
- number of living cells (induction of cell death and inhibition of cell growth) [9]: decrease
- number of living cells (induction of cell death and inhibition of cell growth) [10]: decrease
- change in tumor volume ([5]; intraperitoneal paclitaxel (25 mg/kg) only, compared with negative control): no change
- change in cancer cell number ([8]; paclitaxel (12 nM) only, compared with negative control, FIG. 1): no change
- viability of cancer cells ([8]; paclitaxel only, compared with negative control, FIG. 2): no change
